# Laboratory results published in patent US20260317324A1, “BIFUNCTIONAL COMPOUNDS FOR DEGRADING BRAF VIA UBIQUITIN PROTEOSOME PATHWAY” (Nurix Therapeutics, Inc., priority 2023, published 2026).
# Assays:
# Format in all cases: cell-based
# BRAF V600E = biological target: T1, BRAF V600E (Homo sapiens, UniProt P15056, V600E); test: BRAF HiBiT degradation assay, C-terminal HiBiT-tagged BRAF V600E A375 cells (clone 1F10), Nano-Glo HiBiT Lytic assay; settings: A375 (BRAF V600E, Class 1); for DC50: DC50 at 50% degradation; for Dmax: A-375, observed Dmax, % protein degraded relative to DMSO control
# T1 construct: endogenous C-terminal HiBiT fusion tag on BRAF V600E allele; endogenous in cells; host or cells: A375 clone 1F10 (CRISPR-Cas9 knock-in of the HiBiT tag; parental A375 from ATCC)
# Method in brief: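 A375 cells with CRISPR knock-in C-terminal HiBiT on endogenous BRAF V600E (clone 1F10) were seeded and cultured 24 h at 37 °C, then dosed with an 11-point half-log series (1 μM to 0.01 nM, duplicate, 0.2% DMSO). Lytic HiBiT luminescence gave % protein remaining; DC50 was the fitted concentration at 50%.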
# BRAF G466V = biological target: T2, BRAF G466V (Homo sapiens, UniProt P15056, G466V); test: BRAF HiBiT degradation assay, C-terminal HiBiT-tagged BRAF G466V overexpressed in HCT-116 BRAF−/− cells (clone 8), Nano-Glo HiBiT Lytic assay; settings: BRAF G466V (Class 3), HCT-116 BRAF−/− cells; for DC50: DC50 at 50% degradation; for Dmax: observed Dmax relative to DMSO control
# T2 construct: Horizon Discovery (HCT-116 BRAF−/− cells); host or cells: HCT-116 BRAF−/− cells, clone 8, lentiviral transduction
# Method in brief: (§1)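 HCT-116 BRAF−/− cells stably expressing the tagged mutant were seeded at 3,000 cells/well and grown 24 h at 37 °C before an 11-point half-log series from 1 μM to 0.01 nM, run in duplicate at 0.2% DMSO. Lytic HiBiT luminescence gave % protein remaining versus DMSO controls; DC50 was the fitted concentration at 50%.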
# BRAF D594G = biological target: T3, BRAF D594G (Homo sapiens, UniProt P15056, D594G); test: BRAF HiBiT degradation assay, C-terminal HiBiT-tagged BRAF D594G overexpressed in HCT-116 BRAF−/− cells (clone 63), Nano-Glo HiBiT Lytic assay; settings: BRAF D594G (Class 3), HCT-116 BRAF−/− cells; for DC50: DC50 at 50% degradation; for Dmax: observed Dmax relative to DMSO control
# T3 construct: Horizon Discovery (HCT-116 BRAF−/− cells); host or cells: HCT-116 BRAF−/− cells, clone 63, lentiviral transduction
# Method in brief: as §1
# BRAF G469A = biological target: T4, BRAF G469A (Homo sapiens, UniProt P15056, G469A); test: BRAF HiBiT degradation assay, C-terminal HiBiT-tagged BRAF G469A overexpressed in HCT-116 BRAF−/− cells (clone 34), Nano-Glo HiBiT Lytic assay; settings: BRAF G469A (Class 2), HCT-116 BRAF−/− cells; for DC50: DC50 at 50% degradation; for Dmax: observed Dmax relative to DMSO control
# T4 construct: Horizon Discovery (HCT-116 BRAF−/− cells); host or cells: HCT-116 BRAF−/− cells, clone 34, lentiviral transduction
# Method in brief: as §1
# T1 sequence (P15056 whole entry V600E, the tested form may be a part): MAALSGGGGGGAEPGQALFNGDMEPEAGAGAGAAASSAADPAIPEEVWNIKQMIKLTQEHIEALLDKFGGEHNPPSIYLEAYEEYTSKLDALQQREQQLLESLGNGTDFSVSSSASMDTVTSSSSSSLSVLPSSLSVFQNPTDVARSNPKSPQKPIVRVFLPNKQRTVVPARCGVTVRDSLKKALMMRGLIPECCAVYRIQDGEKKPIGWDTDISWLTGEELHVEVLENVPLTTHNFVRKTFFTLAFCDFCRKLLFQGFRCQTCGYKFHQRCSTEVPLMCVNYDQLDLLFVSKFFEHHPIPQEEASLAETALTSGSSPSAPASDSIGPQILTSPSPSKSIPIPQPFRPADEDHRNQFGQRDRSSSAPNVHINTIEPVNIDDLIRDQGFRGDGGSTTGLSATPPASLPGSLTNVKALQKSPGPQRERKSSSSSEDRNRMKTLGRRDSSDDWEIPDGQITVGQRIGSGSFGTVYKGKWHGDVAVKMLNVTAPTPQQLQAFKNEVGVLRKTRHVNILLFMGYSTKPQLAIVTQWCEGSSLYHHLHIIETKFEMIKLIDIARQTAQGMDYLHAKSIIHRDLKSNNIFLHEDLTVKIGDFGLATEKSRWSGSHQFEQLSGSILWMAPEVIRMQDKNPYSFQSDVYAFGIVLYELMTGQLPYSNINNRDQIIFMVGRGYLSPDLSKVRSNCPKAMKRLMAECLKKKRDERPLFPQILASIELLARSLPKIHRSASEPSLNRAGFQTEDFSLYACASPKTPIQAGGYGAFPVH
# T3 sequence (P15056 whole entry D594G): as the sequence (P15056 whole entry V600E, the tested form may be a part) above, with D594G, E600V counted along it
# T2 sequence (P15056 whole entry G466V): as the sequence (P15056 whole entry V600E, the tested form may be a part) above, with G466V, E600V counted along it
# T4 sequence (P15056 whole entry G469A): as the sequence (P15056 whole entry V600E, the tested form may be a part) above, with G469A, E600V counted along it
DC50 (BRAF V600E) [nM],Dmax (BRAF V600E) [%],DC50 (BRAF G466V) [nM],Dmax (BRAF G466V) [%],DC50 (BRAF D594G) [nM],Dmax (BRAF D594G) [%],DC50 (BRAF G469A) [nM],Dmax (BRAF G469A) [%],SMILES
< 10,> 70,< 10,> 70,< 10,30 to 70,10 to 50,30 to 70,"O=C1CC[C@H](c2ccc(N3CCC(CN4CCN(c5ccc(-n6cc(-c7cc(Cl)cc(NS(=O)(=O)N8CCCC8)c7F)c(-c7ccncc7)n6)cn5)CC4)CC3)cc2)C(=O)N1 [Compound 351, N-{5-chloro-3-[1-(6-{4-[(1-{4-[(3R)-2,6-dioxopiperidin-3-yl]phenyl}piperidin-4-yl)methyl]piperazin-1-yl}pyridin-3-yl)-3-(pyridin-4-yl)-1H-pyrazol-4-yl]-2-fluorophenyl}pyrrolidine-1-sulfonamide]"
< 10,> 70,< 10,> 70,< 10,> 70,< 10,> 70,"O=C1CC[C@H](c2ccc(N3CCC(CN4CCN(c5cc(F)c(-n6cc(-c7cc(Cl)cc(NS(=O)(=O)N8CCCC8)c7F)c(-c7ccncc7)n6)cc5F)CC4)CC3)cc2)C(=O)N1 [Compound 353, N-{5-chloro-3-[1-(4-{4-[(1-{4-[(3R)-2,6-dioxopiperidin-3-yl]phenyl}piperidin-4-yl)methyl]piperazin-1-yl}-2,5-difluorophenyl)-3-(pyridin-4-yl)-1H-pyrazol-4-yl]-2-fluorophenyl}pyrrolidine-1-sulfonamide]"
< 10,> 70,< 10,> 70,< 10,30 to 70,10 to 50,30 to 70,"O=C1CCN(c2ccc(N3CCC(CN4CCN(c5ccc(-n6cc(-c7cc(Cl)cc(NS(=O)(=O)N8CCCC8)c7F)c(-c7ccncc7)n6)cc5)CC4)CC3)nc2)C(=O)N1 [Compound 355, N-[5-chloro-3-(1-{4-[4-({1-[5-(2,4-dioxo-1,3-diazinan-1-yl)pyridin-2-yl]piperidin-4-yl}methyl)piperazin-1-yl]phenyl}-3-(pyridin-4-yl)-1H-pyrazol-4-yl)-2-fluorophenyl]pyrrolidine-1-sulfonamide]"
10 to 50,> 70,10 to 50,30 to 70,> 500,30 to 70,> 500,< 30,"O=C1CCN(c2ccc(N3CCC(CN4CCN(c5ccc(-n6cc(-c7cc(C(F)F)cc(NS(=O)(=O)N8CCCC8)c7F)c(-c7ccncc7)n6)c(F)c5)CC4)CC3)cc2)C(=O)N1 [Compound 356, N-[5-(difluoromethyl)-3-(1-{4-[4-({1-[4-(2,4-dioxo-1,3-diazinan-1-yl)phenyl]piperidin-4-yl}methyl)piperazin-1-yl]-2-fluorophenyl}-3-(pyridin-4-yl)-1H-pyrazol-4-yl)-2-fluorophenyl]pyrrolidine-1-sulfonamide]"
< 10,> 70,10 to 50,30 to 70,< 10,30 to 70,> 500,30 to 70,"O=C1CCN(c2ccc(N3CCC(CN4CCN(c5cnc(-n6cc(-c7cc(Cl)cc(NS(=O)(=O)N8CCCC8)c7F)c(-c7ccncc7)n6)nc5)CC4)CC3)cc2)C(=O)N1 [Compound 358, N-[5-chloro-3-(1-{5-[4-({1-[4-(2,4-dioxo-1,3-diazinan-1-yl)phenyl]piperidin-4-yl}methyl)piperazin-1-yl]pyrimidin-2-yl}-3-(pyridin-4-yl)-1H-pyrazol-4-yl)-2-fluorophenyl]pyrrolidine-1-sulfonamide]"
< 10,> 70,< 10,> 70,< 10,> 70,< 10,30 to 70,"O=C1CC[C@H](c2ccc(N3CCC(CN4CCN(c5cnc(-n6cc(-c7cc(Cl)cc(NS(=O)(=O)N8CCCC8)c7F)c(-c7ccncc7)n6)nc5)CC4)CC3)cc2)C(=O)N1 [Compound 360, N-{5-chloro-3-[1-(5-{4-[(1-{4-[(3R)-2,6-dioxopiperidin-3-yl]phenyl}piperidin-4-yl)methyl]piperazin-1-yl}pyrimidin-2-yl)-3-(pyridin-4-yl)-1H-pyrazol-4-yl]-2-fluorophenyl}pyrrolidine-1-sulfonamide]"
< 10,> 70,< 10,> 70,< 10,30 to 70,> 500,30 to 70,"O=C1CCN(c2ccc(N3CCC(CN4CCN(c5ccc(-n6cc(-c7cc(Cl)cc(NS(=O)(=O)N8CCCC8)c7F)c(-c7ccncc7)n6)cc5F)CC4)CC3)cc2)C(=O)N1 [Compound 361, N-[5-chloro-3-(1-{4-[4-({1-[4-(2,4-dioxo-1,3-diazinan-1-yl)phenyl]piperidin-4-yl}methyl)piperazin-1-yl]-3-fluorophenyl}-3-(pyridin-4-yl)-1H-pyrazol-4-yl)-2-fluorophenyl]pyrrolidine-1-sulfonamide]"
< 10,> 70,< 10,> 70,< 10,30 to 70,10 to 50,30 to 70,"O=C1CC[C@H](c2ccc(N3CCC(CN4CCN(c5ccc(-n6cc(-c7cc(C(F)F)cc(NS(=O)(=O)N8CCCC8)c7F)c(-c7ccncc7)n6)c(F)c5)CC4)CC3)cc2)C(=O)N1 [Compound 362, N-[5-(difluoromethyl)-3-[1-(4-{4-[(1-{4-[(3R)-2,6-dioxopiperidin-3-yl]phenyl}piperidin-4-yl)methyl]piperazin-1-yl}-2-fluorophenyl)-3-(pyridin-4-yl)-1H-pyrazol-4-yl]-2-fluorophenyl]pyrrolidine-1-sulfonamide]"
10 to 50,> 70,< 10,> 70,< 10,> 70,10 to 50,> 70,"O=C1CC[C@H](c2ccc(N3CCC(CN4CCN(c5ccc(-n6cc(-c7cc(Cl)cc(NS(=O)(=O)N8CCCC8)c7F)c(-c7ccncc7)n6)cc5F)CC4)CC3)cc2)C(=O)N1 [Compound 364, N-{5-chloro-3-[1-(4-{4-[(1-{4-[(3R)-2,6-dioxopiperidin-3-yl]phenyl}piperidin-4-yl)methyl]piperazin-1-yl}-3-fluorophenyl)-3-(pyridin-4-yl)-1H-pyrazol-4-yl]-2-fluorophenyl}pyrrolidine-1-sulfonamide]"
< 10,> 70,< 10,30 to 70,< 10,30 to 70,> 500,30 to 70,"O=C1CCN(c2ccc(N3CCC(CN4CCN(c5ccc(-n6cc(-c7cc(Cl)cc(NS(=O)(=O)N8CC[C@@H](F)C8)c7F)c(-c7ccncc7)n6)cc5F)CC4)CC3)cc2)C(=O)N1 [Compound 365, (3R)—N-[5-chloro-3-(1-{4-[4-({1-[4-(2,4-dioxo-1,3-diazinan-1-yl)phenyl]piperidin-4-yl}methyl)piperazin-1-yl]-3-fluorophenyl}-3-(pyridin-4-yl)-1H-pyrazol-4-yl)-2-fluorophenyl]-3-fluoropyrrolidine-1-sulfonamide]"
< 10,> 70,< 10,> 70,< 10,> 70,< 10,> 70,"O=C1CC[C@H](c2ccc(N3CCC(CN4CCN(c5ccc(-n6cc(-c7cc(Cl)cc(NS(=O)(=O)N8CC[C@@H](F)C8)c7F)c(-c7ccncc7)n6)cc5F)CC4)CC3)cc2)C(=O)N1 [Compound 367, (3R)—N-{5-chloro-3-[1-(4-{4-[(1-{4-[(3R)-2,6-dioxopiperidin-3-yl]phenyl}piperidin-4-yl)methyl]piperazin-1-yl}-3-fluorophenyl)-3-(pyridin-4-yl)-1H-pyrazol-4-yl]-2-fluorophenyl}-3-fluoropyrrolidine-1-sulfonamide]"
